Active and inactive are the calls of the source.
Legend:
[1] = target: SRSF protein kinase 1 (Homo sapiens) (UniProt Q96SB4); settings: Compound concentration 1000.0 nM
[2] = target: Serine/threonine-protein kinase TBK1 (Homo sapiens) (UniProt Q9UHD2); settings: Compound concentration 1000.0 nM
[3] = target: 5-hydroxytryptamine receptor 3A (Homo sapiens) (UniProt P46098); settings: Compound concentration 10.0 uM
[4] = target: Activin receptor type-2A (Homo sapiens) (UniProt P27037); settings: Compound concentration 1000.0 nM
[5] = target: Ribosomal protein S6 kinase alpha-5 (Homo sapiens) (UniProt O75582); settings: Compound concentration 1000.0 nM
[6] = target: Calcium/calmodulin-dependent protein kinase type 1D (Homo sapiens) (UniProt Q8IU85); settings: Compound concentration 1000.0 nM
[7] = target: Tyrosine-protein kinase Fyn (Homo sapiens) (UniProt P06241); settings: Compound concentration 1000.0 nM
[8] = target: Ephrin type-A receptor 6 (Homo sapiens) (UniProt Q9UF33); settings: Compound concentration 1000.0 nM
[9] = system: Phosphatidylinositol 4,5-bisphosphate 3-kinase catalytic subunit alpha isoform (Homo sapiens), P42336 [M1043I]; settings: Compound concentration 1000.0 nM
[10] = target: Serine/threonine-protein kinase RIO1 (Homo sapiens) (UniProt Q9BRS2); settings: Compound concentration 1000.0 nM
[11] = target: Death-associated protein kinase 1 (Homo sapiens) (UniProt P53355); settings: Compound concentration 1000.0 nM
[12] = target: Non-receptor tyrosine-protein kinase TYK2 (Homo sapiens) (UniProt P29597); settings: Compound concentration 1000.0 nM
[13] = target: Vascular endothelial growth factor receptor 1 (Homo sapiens) (UniProt P17948); settings: Compound concentration 1000.0 nM
[14] = target: Alpha-1A adrenergic receptor (Homo sapiens) (UniProt P35348); settings: Compound concentration 10.0 uM
[15] = target: Dual specificity tyrosine-phosphorylation-regulated kinase 2 (Homo sapiens) (UniProt Q92630); settings: Compound concentration 1000.0 nM
[16] = target: Glycogen synthase kinase-3 beta (Homo sapiens) (UniProt P49841); settings: Compound concentration 1000.0 nM
[17] = system: Receptor-type tyrosine-protein kinase FLT3 (Homo sapiens), P36888 [R834Q]; settings: Compound concentration 1000.0 nM
[18] = target: Cyclin-G-associated kinase (Homo sapiens) (UniProt O14976); settings: Compound concentration 1000.0 nM
[19] = target: Alpha-1B adrenergic receptor (Homo sapiens) (UniProt P35368); settings: Compound concentration 10.0 uM
[20] = system: Proto-oncogene tyrosine-protein kinase receptor Ret (Homo sapiens), P07949 [V804L]; settings: Compound concentration 1000.0 nM
[21] = target: Ephrin type-A receptor 3 (Homo sapiens) (UniProt P29320); settings: Compound concentration 1000.0 nM
[22] = target: Homeodomain-interacting protein kinase 3 (Homo sapiens) (UniProt Q9H422); settings: Compound concentration 1000.0 nM
[23] = target: T1, Mucosa-associated lymphoid tissue lymphoma translocation protein 1 (Homo sapiens, UniProt Q9UDY8); experiment: Human biochemical (TR-FRET) assay (high salt)
T1 sequence (Q9UDY8 whole entry): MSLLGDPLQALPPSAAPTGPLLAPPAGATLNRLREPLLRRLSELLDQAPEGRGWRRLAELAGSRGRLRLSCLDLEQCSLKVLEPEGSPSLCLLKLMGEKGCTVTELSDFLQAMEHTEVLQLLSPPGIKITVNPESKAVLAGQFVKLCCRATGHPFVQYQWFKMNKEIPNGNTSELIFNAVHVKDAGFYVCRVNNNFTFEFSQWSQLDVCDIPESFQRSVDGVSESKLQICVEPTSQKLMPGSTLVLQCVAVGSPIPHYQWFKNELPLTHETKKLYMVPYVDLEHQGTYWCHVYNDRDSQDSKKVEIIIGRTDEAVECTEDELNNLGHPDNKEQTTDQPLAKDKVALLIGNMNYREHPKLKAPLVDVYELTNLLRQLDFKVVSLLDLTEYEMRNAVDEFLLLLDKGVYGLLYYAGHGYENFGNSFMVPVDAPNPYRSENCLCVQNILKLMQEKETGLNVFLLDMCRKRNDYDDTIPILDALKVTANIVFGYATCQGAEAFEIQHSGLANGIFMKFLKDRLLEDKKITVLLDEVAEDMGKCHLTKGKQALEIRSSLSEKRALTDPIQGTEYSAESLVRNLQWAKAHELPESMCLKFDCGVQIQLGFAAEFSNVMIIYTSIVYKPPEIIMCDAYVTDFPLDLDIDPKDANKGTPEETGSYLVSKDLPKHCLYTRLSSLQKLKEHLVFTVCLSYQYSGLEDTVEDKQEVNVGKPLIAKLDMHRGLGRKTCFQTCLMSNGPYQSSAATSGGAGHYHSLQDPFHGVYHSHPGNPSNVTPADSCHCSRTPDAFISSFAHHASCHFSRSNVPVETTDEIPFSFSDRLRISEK

[24] = target: Serine/threonine-protein kinase N1 (Homo sapiens) (UniProt Q16512); settings: Compound concentration 1000.0 nM
[25] = target: Serine/threonine-protein kinase MAK (Homo sapiens) (UniProt P20794); settings: Compound concentration 1000.0 nM
[26] = target: Activin receptor type-2B (Homo sapiens) (UniProt Q13705); settings: Compound concentration 1000.0 nM
[27] = system: Tyrosine-protein kinase ABL1 (Homo sapiens), P00519 [T315I]; settings: Compound concentration 1000.0 nM
[28] = target: Tyrosine-protein kinase receptor UFO (Homo sapiens) (UniProt P30530); settings: Compound concentration 1000.0 nM
[29] = target: Histamine H4 receptor (Homo sapiens) (UniProt Q9H3N8); settings: Compound concentration 10.0 uM
[30] = target: Myosin light chain kinase 2, skeletal/cardiac muscle (Homo sapiens) (UniProt Q9H1R3); settings: Compound concentration 1000.0 nM
[31] = system: eIF-2-alpha kinase GCN2 (Homo sapiens), Q9P2K8 [S808G]; settings: Compound concentration 1000.0 nM
[32] = target: Serine/threonine-protein kinase PLK4 (Homo sapiens) (UniProt O00444); settings: Compound concentration 1000.0 nM
[33] = target: Cyclin-dependent kinase 15 (Homo sapiens) (UniProt Q96Q40); settings: Compound concentration 1000.0 nM
[34] = target: Serine/threonine-protein kinase 33 (Homo sapiens) (UniProt Q9BYT3); settings: Compound concentration 1000.0 nM

Vascular endothelial growth factor receptor 1 (Homo sapiens), sequence (P17948 whole entry): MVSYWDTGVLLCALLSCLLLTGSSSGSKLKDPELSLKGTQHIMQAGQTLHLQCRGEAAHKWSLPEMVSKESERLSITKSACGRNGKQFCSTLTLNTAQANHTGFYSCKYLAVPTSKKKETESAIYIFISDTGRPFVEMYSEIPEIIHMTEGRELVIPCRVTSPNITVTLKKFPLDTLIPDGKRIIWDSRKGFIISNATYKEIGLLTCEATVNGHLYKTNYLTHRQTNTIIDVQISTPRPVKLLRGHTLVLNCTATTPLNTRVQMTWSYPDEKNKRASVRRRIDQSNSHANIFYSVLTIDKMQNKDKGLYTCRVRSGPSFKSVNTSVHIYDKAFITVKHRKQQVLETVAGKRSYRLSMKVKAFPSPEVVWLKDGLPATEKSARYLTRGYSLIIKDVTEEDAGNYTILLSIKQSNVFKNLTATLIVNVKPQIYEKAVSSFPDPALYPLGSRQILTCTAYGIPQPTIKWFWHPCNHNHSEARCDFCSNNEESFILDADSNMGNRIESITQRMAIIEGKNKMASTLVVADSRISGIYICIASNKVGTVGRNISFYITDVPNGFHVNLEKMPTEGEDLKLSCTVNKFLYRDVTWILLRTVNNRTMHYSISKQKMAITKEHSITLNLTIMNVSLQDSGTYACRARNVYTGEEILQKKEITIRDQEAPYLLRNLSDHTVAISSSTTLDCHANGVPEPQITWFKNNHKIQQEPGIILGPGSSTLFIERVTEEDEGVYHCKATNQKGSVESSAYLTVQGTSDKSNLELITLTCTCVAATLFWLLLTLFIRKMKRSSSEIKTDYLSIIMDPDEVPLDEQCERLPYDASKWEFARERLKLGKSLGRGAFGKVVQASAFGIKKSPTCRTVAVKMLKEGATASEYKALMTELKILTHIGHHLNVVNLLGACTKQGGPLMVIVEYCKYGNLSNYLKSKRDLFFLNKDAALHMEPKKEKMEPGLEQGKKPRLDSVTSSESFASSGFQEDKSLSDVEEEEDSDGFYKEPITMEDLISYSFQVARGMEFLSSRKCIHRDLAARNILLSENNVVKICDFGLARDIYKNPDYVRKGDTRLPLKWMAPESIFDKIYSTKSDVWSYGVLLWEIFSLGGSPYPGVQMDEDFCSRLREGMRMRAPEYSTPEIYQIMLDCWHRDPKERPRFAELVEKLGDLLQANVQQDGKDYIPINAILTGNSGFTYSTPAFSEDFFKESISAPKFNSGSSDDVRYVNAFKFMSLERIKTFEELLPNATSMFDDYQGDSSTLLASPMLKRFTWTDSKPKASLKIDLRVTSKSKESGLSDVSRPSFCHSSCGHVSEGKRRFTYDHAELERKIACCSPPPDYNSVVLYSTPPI
Myosin light chain kinase 2, skeletal/cardiac muscle (Homo sapiens), sequence (Q9H1R3 whole entry): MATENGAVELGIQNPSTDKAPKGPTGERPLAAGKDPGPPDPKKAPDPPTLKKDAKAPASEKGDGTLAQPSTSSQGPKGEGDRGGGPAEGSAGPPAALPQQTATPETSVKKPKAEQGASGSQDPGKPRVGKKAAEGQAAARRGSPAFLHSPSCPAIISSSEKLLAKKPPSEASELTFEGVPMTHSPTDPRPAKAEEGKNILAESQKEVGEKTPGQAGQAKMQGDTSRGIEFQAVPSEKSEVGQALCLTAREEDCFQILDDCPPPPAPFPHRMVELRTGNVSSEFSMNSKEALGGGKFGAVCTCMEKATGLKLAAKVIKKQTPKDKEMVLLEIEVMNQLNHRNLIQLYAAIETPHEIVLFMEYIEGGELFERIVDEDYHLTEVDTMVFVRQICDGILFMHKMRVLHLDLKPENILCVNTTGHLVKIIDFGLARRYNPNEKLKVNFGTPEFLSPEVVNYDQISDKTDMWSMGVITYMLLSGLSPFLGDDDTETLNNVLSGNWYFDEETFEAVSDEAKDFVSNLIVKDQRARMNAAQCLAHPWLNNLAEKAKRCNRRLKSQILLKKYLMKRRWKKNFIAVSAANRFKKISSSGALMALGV
Activin receptor type-2B (Homo sapiens), sequence (Q13705 whole entry): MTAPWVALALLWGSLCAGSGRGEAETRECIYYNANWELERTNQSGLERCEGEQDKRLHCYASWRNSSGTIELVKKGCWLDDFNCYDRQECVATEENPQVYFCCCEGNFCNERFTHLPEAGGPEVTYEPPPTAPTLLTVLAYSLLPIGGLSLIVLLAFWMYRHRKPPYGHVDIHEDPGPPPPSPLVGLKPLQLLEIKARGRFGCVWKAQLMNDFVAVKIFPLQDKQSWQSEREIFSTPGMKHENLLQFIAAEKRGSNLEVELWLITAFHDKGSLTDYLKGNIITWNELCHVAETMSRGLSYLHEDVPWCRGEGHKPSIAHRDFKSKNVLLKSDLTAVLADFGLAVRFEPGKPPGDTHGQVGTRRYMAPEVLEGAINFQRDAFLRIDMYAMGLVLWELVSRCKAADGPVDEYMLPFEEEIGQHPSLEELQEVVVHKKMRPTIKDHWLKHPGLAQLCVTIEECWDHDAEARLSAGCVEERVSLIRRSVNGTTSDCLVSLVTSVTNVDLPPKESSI
Cyclin-G-associated kinase (Homo sapiens), sequence (O14976 whole entry): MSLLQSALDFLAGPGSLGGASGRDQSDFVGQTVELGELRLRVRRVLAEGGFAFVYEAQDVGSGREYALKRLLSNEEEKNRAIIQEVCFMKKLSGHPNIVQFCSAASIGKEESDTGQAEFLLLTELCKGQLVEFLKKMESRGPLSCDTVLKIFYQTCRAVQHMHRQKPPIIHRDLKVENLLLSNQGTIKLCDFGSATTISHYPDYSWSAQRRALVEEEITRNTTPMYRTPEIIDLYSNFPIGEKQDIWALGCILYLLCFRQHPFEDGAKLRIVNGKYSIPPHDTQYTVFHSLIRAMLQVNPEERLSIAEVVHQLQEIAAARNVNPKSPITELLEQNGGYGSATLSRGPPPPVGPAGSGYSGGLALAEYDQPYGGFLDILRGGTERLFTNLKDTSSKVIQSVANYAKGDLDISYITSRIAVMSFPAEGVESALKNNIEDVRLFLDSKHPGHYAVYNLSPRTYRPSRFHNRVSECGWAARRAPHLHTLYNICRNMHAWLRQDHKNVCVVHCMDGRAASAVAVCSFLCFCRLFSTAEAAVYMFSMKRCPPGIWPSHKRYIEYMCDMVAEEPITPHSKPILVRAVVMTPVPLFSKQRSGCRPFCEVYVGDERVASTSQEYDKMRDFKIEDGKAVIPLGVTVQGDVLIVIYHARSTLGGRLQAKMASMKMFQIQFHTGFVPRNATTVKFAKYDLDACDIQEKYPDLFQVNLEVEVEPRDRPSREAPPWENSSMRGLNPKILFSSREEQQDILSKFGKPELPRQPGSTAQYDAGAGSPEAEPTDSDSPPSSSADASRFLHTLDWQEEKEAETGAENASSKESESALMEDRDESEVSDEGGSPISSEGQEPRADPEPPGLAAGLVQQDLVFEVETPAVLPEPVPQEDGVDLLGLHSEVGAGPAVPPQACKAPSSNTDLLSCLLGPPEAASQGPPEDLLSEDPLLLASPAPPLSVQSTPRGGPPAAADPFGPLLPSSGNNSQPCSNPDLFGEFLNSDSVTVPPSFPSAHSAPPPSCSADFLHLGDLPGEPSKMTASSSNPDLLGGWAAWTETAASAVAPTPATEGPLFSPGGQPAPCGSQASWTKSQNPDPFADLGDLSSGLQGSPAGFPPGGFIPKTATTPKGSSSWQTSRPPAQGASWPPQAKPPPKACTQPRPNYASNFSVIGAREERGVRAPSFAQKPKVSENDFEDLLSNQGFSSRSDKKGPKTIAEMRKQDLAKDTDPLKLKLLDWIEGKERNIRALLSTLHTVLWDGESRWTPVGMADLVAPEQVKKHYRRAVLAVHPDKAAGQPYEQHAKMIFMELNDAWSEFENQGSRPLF
Dual specificity tyrosine-phosphorylation-regulated kinase 2 (Homo sapiens), sequence (Q92630 whole entry): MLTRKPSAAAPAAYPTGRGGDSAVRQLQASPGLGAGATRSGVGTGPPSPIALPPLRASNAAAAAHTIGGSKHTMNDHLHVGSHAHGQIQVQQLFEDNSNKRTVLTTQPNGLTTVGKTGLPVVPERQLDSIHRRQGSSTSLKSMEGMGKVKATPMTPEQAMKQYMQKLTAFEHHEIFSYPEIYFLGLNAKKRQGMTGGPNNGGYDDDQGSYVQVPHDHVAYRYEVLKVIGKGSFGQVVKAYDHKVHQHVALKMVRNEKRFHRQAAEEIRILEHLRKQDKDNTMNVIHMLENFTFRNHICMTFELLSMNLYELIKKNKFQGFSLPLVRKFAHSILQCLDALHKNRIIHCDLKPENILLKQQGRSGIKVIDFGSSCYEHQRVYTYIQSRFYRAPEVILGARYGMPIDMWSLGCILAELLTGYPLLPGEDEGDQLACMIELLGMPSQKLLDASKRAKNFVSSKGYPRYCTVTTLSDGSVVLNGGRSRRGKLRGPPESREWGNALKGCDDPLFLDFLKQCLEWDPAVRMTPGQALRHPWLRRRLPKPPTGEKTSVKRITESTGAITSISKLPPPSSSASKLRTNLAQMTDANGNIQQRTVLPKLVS
Serine/threonine-protein kinase TBK1 (Homo sapiens), sequence (Q9UHD2 whole entry): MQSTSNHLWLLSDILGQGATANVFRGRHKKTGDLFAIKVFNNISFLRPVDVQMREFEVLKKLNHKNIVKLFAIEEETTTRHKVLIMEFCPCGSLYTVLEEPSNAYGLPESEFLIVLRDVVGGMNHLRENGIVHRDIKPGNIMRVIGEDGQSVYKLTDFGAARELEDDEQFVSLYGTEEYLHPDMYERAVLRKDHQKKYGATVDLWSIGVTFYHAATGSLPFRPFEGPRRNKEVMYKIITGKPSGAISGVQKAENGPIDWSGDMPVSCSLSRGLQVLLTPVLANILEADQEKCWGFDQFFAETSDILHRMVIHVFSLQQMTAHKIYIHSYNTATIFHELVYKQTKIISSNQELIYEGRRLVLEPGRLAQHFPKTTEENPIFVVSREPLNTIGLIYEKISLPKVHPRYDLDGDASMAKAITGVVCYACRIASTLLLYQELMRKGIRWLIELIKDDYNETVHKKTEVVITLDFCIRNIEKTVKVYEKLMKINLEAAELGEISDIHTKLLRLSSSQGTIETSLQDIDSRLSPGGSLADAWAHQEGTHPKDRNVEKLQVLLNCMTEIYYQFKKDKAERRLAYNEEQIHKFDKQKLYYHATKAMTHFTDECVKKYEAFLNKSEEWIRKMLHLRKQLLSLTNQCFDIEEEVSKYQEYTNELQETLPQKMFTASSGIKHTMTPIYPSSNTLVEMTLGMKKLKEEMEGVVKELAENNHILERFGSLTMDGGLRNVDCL

CO[C@@H](C)c1c(Nc2ccc([C@@H](N(C)C(=O)C3CCS(=O)(=O)CC3)C(F)(F)F)cc2)cnc2cc(Cl)nn12 [NVS-MALT1-C]
active: IC50 [23] 190 nM
inactive: residual activity [1] 95% | residual activity [2] 77% | inhibition [3] -1.2% | residual activity [4] 100% | residual activity [5] 82% | residual activity [6] 100% | residual activity [7] 95% | residual activity [8] 100% | residual activity [9] 100% | residual activity [10] 91% | residual activity [11] 89% | residual activity [12] 98% | residual activity [13] 85% | inhibition [14] -3.44% | residual activity [15] 95% | residual activity [16] 100% | residual activity [17] 100% | residual activity [18] 93% | inhibition [19] 5.97% | residual activity [20] 78% | residual activity [21] 90% | residual activity [22] 100% | residual activity [24] 99% | residual activity [25] 100% | residual activity [26] 100% | residual activity [27] 78% | residual activity [28] 77% | inhibition [29] -8.46% | residual activity [30] 88% | residual activity [31] 68% | residual activity [32] 100% | residual activity [33] 94% | residual activity [34] 51%

CO[C@@H](C)c1c(Nc2ccc([C@H](N(C)C(=O)C3CCS(=O)(=O)CC3)C(F)(F)F)cc2)cnc2cc(Cl)nn12 [NVS-MALT1]
inactive: residual activity [1] 96% | residual activity [2] 59% | inhibition [3] -6.2% | residual activity [4] 93% | residual activity [5] 86% | residual activity [6] 99% | residual activity [7] 100% | residual activity [8] 100% | residual activity [9] 100% | residual activity [10] 85% | residual activity [11] 88% | residual activity [12] 100% | residual activity [13] 82% | inhibition [14] -7.59% | residual activity [15] 89% | residual activity [16] 100% | residual activity [17] 100% | residual activity [18] 98% | inhibition [19] 27.6% | residual activity [20] 86% | residual activity [21] 97% | residual activity [22] 100% | residual activity [24] 100% | residual activity [25] 100% | residual activity [26] 66% | residual activity [27] 87% | residual activity [28] 76% | inhibition [29] 3.84% | residual activity [30] 83% | residual activity [31] 78% | residual activity [32] 100% | residual activity [33] 74% | residual activity [34] 51%
active: IC50 [23] 2.4 nM
